Data on 18 compounds can be found in patent publication US9802927B2, “Oxadiazine compounds and methods of use thereof” (Denali Therapeutics, Inc., priority 2015, dated 2017).

Where only a bound is given, the exact number is not on record here.

The first experiment concerns Aβ42. Briefly: In vitro cell screening assay in H4 cells expressing human APP751: Aβ42 by sandwich ELISA. The settings on record: Homo sapiens, compounds 0.003-10 μM, incubated overnight (16-18 h), sandwich ELISA of supernatant. Type of experiment: cell-based. A digest of the protocol:
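Secreted Aβ42 measured by sandwich ELISA, C-terminal-specific capture and 4G8-HRP detection, TMB read at 450 nm, from supernatants of APP751-expressing H4 cells exposed overnight (16-18 h) to 0.003-10 μM compound in Pro293 medium, 0.33% DMSO. Data scaled between DMSO and DAPT controls; EC50 from variable-slope nonlinear regression.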
`COc1nc(C2=NOC[C@H](c3cc4ccccc4o3)N2)ccc1-n1cnc(C)c1` [Example 4, (R)-5-(Benzofuran-2-yl)-3-(6-methoxy-5-(4-methyl-1H-imidazol-1-yl)pyridin-2-yl)-5,6-dihydro-4H-1,2,4-oxadiazine] gave an EC50 of 0.0384 µM.
Same read-out and setting: the same measure for `COc1nc(C2=NOC[C@H](c3cc4cc(C)ccc4o3)N2)ccc1-n1cnc(C)c1` [Example 10, (R)-3-(6-Methoxy-5-(4-methyl-1H-imidazol-1-yl)pyridin-2-yl)-5-(5-methylbenzofuran-2-yl)-5,6-dihydro-4H-1,2,4-oxadiazine]: 0.016 µM; for `COc1nc(C2=NOC[C@H](c3cc4ccccc4s3)N2)ccc1-n1cnc(C)c1` [Example 13, (R)-5-(Benzo[b]thiophen-2-yl)-3-(6-methoxy-5-(4-methyl-1H-imidazol-1-yl)pyridin-2-yl)-5,6-dihydro-4H-1,2,4-oxadiazine]: 0.0078 µM.
Same read-out and setting: the same measure for `COc1nc(C2=NOC[C@H](c3cc4c(C)cccc4o3)N2)ccc1-n1cnc(C)c1` [Example 19, (R)-3-(6-Methoxy-5-(4-methyl-1H-imidazol-1-yl)pyridin-2-yl)-5-(4-methylbenzofuran-2-yl)-5,6-dihydro-4H-1,2,4-oxadiazine]: 0.0115 µM; for `COc1nc(C2=NOC[C@H](c3cc4ccc(C)cc4o3)N2)ccc1-n1cnc(C)c1` [Example 22, (R)-3-(6-Methoxy-5-(4-methyl-1H-imidazol-1-yl)pyridin-2-yl)-5-(6-methylbenzofuran-2-yl)-5,6-dihydro-4H-1,2,4-oxadiazine]: 0.0184 µM; for `COc1nc(C2=NOC[C@H](c3cc4ccccc4o3)N2C)ccc1-n1cnc(C)c1` [Example 32, (R)-5-(Benzofuran-2-yl)-3-(6-methoxy-5-(4-methyl-1H-imidazol-1-yl)pyridin-2-yl)-4-methyl-5,6-dihydro-4H-1,2,4-oxadiazine]: 0.391 µM.

The same experiment, now with this note: compounds 0.003-10 μM, incubated overnight (16-18 h), sandwich ELISA of supernatant.
As to `COc1cc(Cl)c2c(C3CON=C(c4ccc(-n5cnc(C)c5)c(OC)n4)N3)cn(C)c2c1` (single isomer, unassigned; (-)) [Example 261B, (−)-5-(4-chloro-6-methoxy-1-methyl-1H-indol-3-yl)-3-(6-methoxy-5-(4-methyl-1H-imidazol-1-yl)pyridin-2-yl)-5,6-dihydro-4H-1,2,4-oxadiazine], the response was half-maximal at 0.0212 µM (EC50).
Same read-out and setting: the value for `COc1nc(C2=NOCC(c3ccc(C(F)(F)F)c(Cl)c3)N2)ccc1-n1cnc(C)c1` (single isomer, unassigned; (-)) [Example 262A, (−)-5-(3-chloro-4-(trifluoromethyl)phenyl)-3-(6-methoxy-5-(4-methyl-1H-imidazol-1-yl)pyridin-2-yl)-5,6-dihydro-4H-1,2,4-oxadiazine] was over 3 µM.
The compound `COc1nc(C2=NOCC(c3cn(C)c4ncc(Cl)cc34)N2)ccc1-n1cnc(C)c1` (single isomer, unassigned; (-)) [Example 264A, (−)-5-(5-chloro-1-methyl-1H-pyrrolo[2,3-b]pyridin-3-yl)-3-(6-methoxy-5-(4-methyl-1H-imidazol-1-yl)pyridin-2-yl)-5,6-dihydro-4H-1,2,4-oxadiazine] gave an EC50 of 0.321 µM.
`COc1nc(C2=NOCC(c3cn(C)c4ncc(C5CC5)cc34)N2)ccc1-n1cnc(C)c1` (single isomer, unassigned; (-)) [Example 266A, (−)-5-(5-cyclopropyl-1-methyl-1H-pyrrolo[2,3-b]pyridin-3-yl)-3-(6-methoxy-5-(4-methyl-1H-imidazol-1-yl)pyridin-2-yl)-5,6-dihydro-4H-1,2,4-oxadiazine] returned an EC50 of 0.45 µM. The EC50 values of the last two compounds are within 1.5-fold of each other.
The compound `COc1nc(C2=NOCC(c3cc(F)c(Cl)c(F)c3)N2)ccc1-n1cnc(C)c1` (single isomer, unassigned; (-)) [Example 267A, (−)-5-(4-chloro-3,5-difluorophenyl)-3-(6-methoxy-5-(4-methyl-1H-imidazol-1-yl)pyridin-2-yl)-5,6-dihydro-4H-1,2,4-oxadiazine] had an EC50 of over 3 µM.
Same read-out and setting: the same measure for `COc1nc(C2=NOCC(c3ccc(C(C)(C)O)cc3)N2)ccc1-n1cnc(C)c1` (single isomer, unassigned; (-)) [Example 268A, (−)-2-(4-(3-(6-methoxy-5-(4-methyl-1H-imidazol-1-yl)pyridin-2-yl)-5,6-dihydro-4H-1,2,4-oxadiazin-5-yl)phenyl)propan-2-ol]: 1.44 µM.
`COc1nc(C2=NOCC(c3cnc4ccc(Cl)cn34)N2)ccc1-n1cnc(C)c1` (single isomer, unassigned; (-)) [Example 269A, (−)-5-(6-chloroimidazo[1,2-a]pyridin-3-yl)-3-(6-methoxy-5-(4-methyl-1H-imidazol-1-yl)pyridin-2-yl)-5,6-dihydro-4H-1,2,4-oxadiazine]: the EC50 was over 3 µM.
Compound `COc1nc(C2=NOCC(c3ccc(Cl)c(C(F)F)c3)N2)ccc1-n1cnc(C)c1` (single isomer, unassigned; (-)) [Example 270A, (−)-5-(4-chloro-3-(difluoromethyl)phenyl)-3-(6-methoxy-5-(4-methyl-1H-imidazol-1-yl)pyridin-2-yl)-5,6-dihydro-4H-1,2,4-oxadiazine] showed a 50% effective concentration (EC50) of 0.418 µM.
Compound `COc1nc(C2=NOCC(c3oc4ccccc4c3C)N2)ccc1-n1cnc(C)c1` (stereo not drawn) [Example 16B, 3-(6-methoxy-5-(4-methyl-1H-imidazol-1-yl)pyridin-2-yl)-5-(3-methylbenzofuran-2-yl)-5,6-dihydro-4H-1,2,4-oxadiazine] came in with a half-maximal effective concentration (EC50) of 0.0167 µM. This EC50 is about 25-fold lower than that of the compound before.
In turn, `COc1nc(C2=NOCC(c3cccc(C(F)(F)F)c3)N2C)ccc1-n1cnc(C)c1` (stereo not drawn) [Example 30A, 3-(6-methoxy-5-(4-methyl-1H-imidazol-1-yl)pyridin-2-yl)-4-methyl-5-(3-(trifluoromethyl)phenyl)-5,6-dihydro-4H-1,2,4-oxadiazine] displayed an EC50 of 0.0557 µM.
Same read-out and setting: the value for `COc1nc(C2=NOCC(c3cccc(C(F)(F)F)c3)N2C)ccc1-n1cnc(C)c1` (stereo not drawn) [Example 30B, 3-(6-methoxy-5-(4-methyl-1H-imidazol-1-yl)pyridin-2-yl)-4-methyl-5-(3-(trifluoromethyl)phenyl)-5,6-dihydro-4H-1,2,4-oxadiazine] was over 3 µM; that for `COc1nc(C2=NOCC(c3cccc(C(F)(F)F)c3)N2C)ccc1-n1cnc(C)c1` (stereo not drawn) [Example 213, 3-(6-methoxy-5-(4-methyl-1H-imidazol-1-yl)pyridin-2-yl)-4-methyl-5-(3-(trifluoromethyl)phenyl)-5,6-dihydro-4H-1,2,4-oxadiazine] was 0.0557 µM.

As usually defined, the EC50 is the concentration needed to bring the measured effect to its halfway point.
